The text below walks through data of ChEMBL document CHEMBL4270561, “Biological activity of doubly modified salinomycin analogs - Evaluation in vitro and ex vivo” (Eur J Med Chem, 2018).

In data set [1] the test system is MCF-10A. Description: Antiproliferative activity against human MCF10A cells after 72 hrs by SRB assay. Type of data set: cell-based. For orientation: Sulforhodamine B stains cellular protein and so reports cell mass.
The nature of data set [2]: Selectivity index, ratio of IC50 for human MCF10A cells to IC50 for human MCF7 cells. To be noted: MCF10A cells versus MCF7 cells, read-out: Ratio IC50. The class given is toxicity.
Data set [3] relates to Breast carcinoma cell. Description: Ex vivo antitumor activity against patient derived breast cancer tissue assessed as increase in number of dead tumor cells at 6.2 uM by H and E staining based immunohistochemical analysis. Type of data set: functional. To be noted: Homo sapiens, TDE = time-dependent effect.
A short description of data set [4]: Selectivity index, ratio of IC50 for human MCF10A cells to IC50 for human LoVo/DX cells. The class given is toxicity. To be noted: MCF10A cells versus LoVo/DX cells, read-out: Ratio IC50.
Data set [5] deals with Breast carcinoma cell. Description: Ex vivo antitumor activity against patient derived breast cancer tissue assessed as decrease in tumor cell proliferation at 6.2 uM by Ki-67 staining based immunohistochemical analysis. Type of data set: functional. The conditions noted are these: Homo sapiens, TDE = time-dependent effect.
Data set [6] in a line: Antiproliferative activity against human LoVo/DX cells after 72 hrs by SRB assay. Type of data set: functional, cell-based.
A short description of data set [7]: Selectivity index, ratio of IC50 for human MCF10A cells to IC50 for human JIMT1 cells. The class given is toxicity. To be noted: MCF10A cells versus JIMT1 cells, read-out: Ratio IC50.
A further data set has as its system MCF7. Description: Antiproliferative activity against human MCF7 cells after 72 hrs by SRB assay. Type of data set: functional, cell-based. To be noted: MCF7, 72 h.
A short description of data set [8]: Selectivity index, ratio of IC50 for human MCF10A cells to IC50 for human LoVo cells. The class given is toxicity. To be noted: MCF10A cells versus LoVo cells, read-out: Ratio IC50.
A short description of data set [9]: Selectivity index, ratio of IC50 for human MCF10A cells to IC50 for human ALL5 cells. Type of data set: toxicity. To be noted: MCF10A cells versus ALL5 cells, read-out: Ratio IC50.
Data set [10] in a line: Selectivity index, ratio of IC50 for human MCF10A cells to IC50 for human SK-BR-3 cells. Type of data set: toxicity. The conditions noted are these: MCF10A cells versus SK-BR-3 cells, read-out: Ratio IC50.
In data set [11] the test system is JIMT-1. Put plainly: Antiproliferative activity against human JIMT1 cells after 72 hrs by SRB assay. Type of data set: functional, cell-based. The conditions noted are these: JIMT-1, 72 h.
A short description of data set [12]: Resistance index, ratio of IC50 for human LoVo/DX cells to IC50 for human LoVo cells. Type of data set: functional.
Data set [13] relates to SK-BR-3. Put plainly: Antiproliferative activity against human SK-BR-3 cells after 72 hrs by SRB assay. The class given is functional, cell-based. The conditions noted are these: SK-BR-3, 72 h.
Data set [14] can be described thus: Antiproliferative activity against human ALL5 cells after 120 hrs by MTT assay. The class given is functional, cell-based. To be noted: ALL5, 120 h. In general terms: Tetrazolium assays rely on reduction of a dye to a coloured formazan, in cell work by metabolically active cells.
In data set [15] the test system is LoVo. Description: Antiproliferative activity against human LoVo cells after 72 hrs by SRB assay. The class given is functional, cell-based.
Data set [16] in a line: Cell cycle arrest in human ALL5 cells assessed as accumulation at S-phase at 5 times antiproliferative IC50 after 96 hrs by propidium iodide staining based flow cytometry (reference value: 7.52%). The class given is functional. For orientation: In flow cytometry, cells or beads pass a laser one at a time.
Data set [17] can be described thus: Cell cycle arrest in human ALL5 cells assessed as accumulation at G2/M-phase at 5 times antiproliferative IC50 after 96 hrs by propidium iodide staining based flow cytometry (reference value: 11.1%). The class given is functional.
Data set [18] is described as follows: Cell cycle arrest in human ALL5 cells assessed as accumulation at S-phase at 5 times antiproliferative IC50 after 24 hrs by propidium iodide staining based flow cytometry (reference value: 6.76%). Type of data set: functional.
Data set [19] deals with Breast carcinoma cell. Put plainly: Ex vivo antitumor activity against patient derived breast cancer tissue assessed as decrease in tumor cell proliferation at 18.5 uM by Ki-67 staining based immunohistochemical analysis. The class given is functional. The conditions noted are these: Homo sapiens, TDE = time-dependent effect.
A short description of data set [20]: Cell cycle arrest in human ALL5 cells assessed as accumulation at G2/M-phase at 5 times antiproliferative IC50 after 24 hrs by propidium iodide staining based flow cytometry (reference value: 7.98%). Type of data set: functional.
A short description of data set [21]: Cell cycle arrest in human ALL5 cells assessed as accumulation at sub-G1 phase at 5 times antiproliferative IC50 after 96 hrs by propidium iodide staining based flow cytometry (reference value: 12%). Type of data set: functional.
Data set [22] is described as follows: Cell cycle arrest in human ALL5 cells assessed as accumulation at G0/G1 phase at 5 times antiproliferative IC50 after 48 hrs by propidium iodide staining based flow cytometry (reference value: 69.6%). The class given is functional.
The nature of data set [23]: Cell cycle arrest in human ALL5 cells assessed as accumulation at G0/G1 phase at 5 times antiproliferative IC50 after 96 hrs by propidium iodide staining based flow cytometry (reference value: 69.8%). The class given is functional.
Data set [24] in a line: Cell cycle arrest in human ALL5 cells assessed as accumulation at sub-G1 phase at 5 times antiproliferative IC50 after 48 hrs by propidium iodide staining based flow cytometry (reference value: 7.8%). Type of data set: functional.
A short description of data set [25]: Cell cycle arrest in human ALL5 cells assessed as accumulation at sub-G1 phase at 5 times antiproliferative IC50 after 24 hrs by propidium iodide staining based flow cytometry (reference value: 6.07%). Type of data set: functional.
Data set [26] is described as follows: Cell cycle arrest in human ALL5 cells assessed as accumulation at G0/G1 phase at 5 times antiproliferative IC50 after 24 hrs by propidium iodide staining based flow cytometry (reference value: 79.7%). The class given is functional.
For data set [27], the system named is Breast carcinoma cell. Put plainly: Ex vivo antitumor activity against patient derived breast cancer tissue assessed as increase in number of dead tumor cells at 18.5 uM by H and E staining based immunohistochemical analysis. Type of data set: functional. The conditions noted are these: Homo sapiens, TDE = time-dependent effect.
The nature of data set [28]: Cell cycle arrest in human ALL5 cells assessed as accumulation at S-phase at 5 times antiproliferative IC50 after 48 hrs by propidium iodide staining based flow cytometry (reference value: 9.82%). The class given is functional.
Data set [29] is described as follows: Cell cycle arrest in human ALL5 cells assessed as accumulation at G2/M-phase at 5 times antiproliferative IC50 after 48 hrs by propidium iodide staining based flow cytometry (reference value: 13.2%). The class given is functional.
Data set [30] relates to MCF-10A. Put plainly: Antiproliferative activity against human MCF10A cells at 100 ug/ml after 72 hrs by SRB assay relative to control. The class given is cell-based.
Data set [31] concerns JIMT-1. Description: Antiproliferative activity against human JIMT1 cells at 100 ug/ml after 72 hrs by SRB assay relative to control. Type of data set: functional.
Data set [32] can be described thus: Antiproliferative activity against human ALL5 cells at 10 uM after 120 hrs by MTT assay relative to control. The class given is functional.
For data set [33], the system named is LoVo. Put plainly: Antiproliferative activity against human LoVo cells at 100 ug/ml after 72 hrs by SRB assay relative to control. The class given is functional.
Data set [34] can be described thus: Antiproliferative activity against human LoVo/DX cells at 100 ug/ml after 72 hrs by SRB assay relative to control. The class given is functional.
The subject of data set [35] is SK-BR-3. Put plainly: Antiproliferative activity against human SK-BR-3 cells at 100 ug/ml after 72 hrs by SRB assay relative to control. The class given is functional.

Regarding `CC[C@@H](C(=O)[C@@H](C)[C@@H](O)[C@H](C)[C@@H]1O[C@@H]([C@@H](CC)C(=O)O)CC[C@@H]1C)[C@H]1O[C@]2(C=C[C@@H](O)[C@]3(CC[C@@](C)([C@H]4CC[C@](O)(CC)[C@H](C)O4)O3)O2)[C@H](C)C[C@@H]1C` [SALINOMYCIN], the IC50 with MCF-10A [1] was found to be 46 µM; in [6], 0.69 µM; in the data set with MCF7, 1.5 µM; in the data set with JIMT-1 [11], 1.3 µM; in the data set with SK-BR-3 [13], 0.89 µM; in [14] it was 2.4 µM. In addition, in the data set with LoVo [15], half-maximal inhibition (IC50) required 0.44 µM. In addition, the selectivity ratio in data set [2] came out at 31; in data set [4], 67; in [7], 35; in [8], 105; in [9], 19; in [10], 52. Besides, the Activity entry with Breast carcinoma cell [3] and in the data set with Breast carcinoma cell [5] was “Tde” throughout. Further, the “Ratio IC50” value in data set [12] came to 1.6.
Regarding `CC[C@@H](C(=O)[C@@H](C)[C@@H](O)[C@H](C)[C@@H]1O[C@@H]([C@@H](CC)C(=O)NCCc2ccc(F)cc2)CC[C@@H]1C)[C@H]1O[C@]2(C=C[C@@H](OC(C)=O)[C@]3(CC[C@@](C)([C@H]4CC[C@](O)(CC)[C@H](C)O4)O3)O2)[C@H](C)C[C@@H]1C`, the IC50 turned out to be 43 µM with MCF-10A [1]; 3.5 µM in [6]; 3.7 µM in the data set with MCF7; 3.7 µM in the data set with JIMT-1 [11]; 3.8 µM in the data set with SK-BR-3 [13]; 1.8 µM in [14]. The IC50 with LoVo [15] amounted to 4 µM. For the same molecule, the Activity is 1.55% in [16]; 1.96% in [17]; 4.18% in data set [18]; “Tde” with Breast carcinoma cell [19]; 5.08% in data set [20]; 49.3% in data set [21]. For the same molecule, the Activity is 65.6% in data set [22]; 47.3% in data set [23]; 27.4% in [24]; 11% in data set [25]; 79.9% in [26]; “Tde” with Breast carcinoma cell [27]. Moreover, the results for the Activity in data set [28] and in [29] were 2.15% and 5.2%, respectively. In addition, the selectivity ratio was 12 in data set [2]; 12 in [4]; 12 in data set [7]; 11 in data set [8]; 24 in data set [9]; 11 in [10]. Besides, the “Ratio IC50” value in [12] is reported as 0.88.
As to `CCOC(=O)O[C@@H]1C=C[C@]2(O[C@H]([C@@H](CC)C(=O)[C@@H](C)[C@@H](O)[C@H](C)[C@@H]3O[C@@H]([C@@H](CC)C(=O)OCC(F)(F)F)CC[C@@H]3C)[C@@H](C)C[C@H]2C)O[C@@]12CC[C@@](C)([C@H]1CC[C@](O)(CC)[C@H](C)O1)O2`, the Activity result is “<= 50%” with MCF-10A [30]; “<=50%” with JIMT-1 [31]; “<=50%” in data set [32]; “<=50%” with LoVo [33]; “<=50%” in data set [34]; “<=50%” with SK-BR-3 [35]. The molecule further showed an IC50 with MCF7 of 68 µM.

Usually IC50 stands for the point on the concentration scale where inhibition reaches its midpoint.
